Data published in patent US9649305B2, “PFKFB3 inhibitor and methods of use as an anti-cancer therapeutic” (ADVANCED CANCER THERAPEUTICS, LLC, priority 2012, dated 2017).
Like-named read-outs stand apart in the source and are kept apart here.

How the values were obtained:
[1] = Toxicology study in dogs at 40 mg/kg; format: in vivo, beagle dogs
Description: In another embodiment, the potential toxicity of PFK-158 (in the form of its dication) was investigated at 40 mg/kg in male and female beagle dogs using a 3 day a week for a total of three weeks dosing regimen. The potential toxicity of PFK-158 was investigated by monitoring all clinical signs during the in-life phase, taking blood and urine samples for full clinical chemistry panels and urinalysis, monitoring body weights and food intake. Gross necropsy and complete histopathology were performed at the time of termination.

[2] = In vitro stability in human liver microsomes; format: in vitro ADME
[3] = test system: Jurkat cells; assay: Inhibition of 14C-2-deoxyglucose uptake; format: cell-based; settings: Homo sapiens, Jurkat cells
Description: Inhibition of PFKFB3 results in inhibiting glycolysis. Several feedback or feedforward activation and inhibition mechanisms exist so that, by a feedback mechanism, inhibiting the activity of PFKFB3 might inhibit glucose uptake by cells. An assay was developed to determine if there was inhibition of glucose uptake following exposure PFK-158. Briefly, Jurkat cells were plated at 10^5 cells/mL in RPMI 1640 supplemented with 10% fetal bovine serum and 50 μg/mL gentamicin sulfate. Cells were immediately treated with vehicle or 0.5 μmol/L of PFK-158 for 3 hours and subsequently placed in glucose-free RPMI 1640 for 30 min. ^14C-2-deoxyglucose (0.25 μCi/mL; Perkin Elmer) was added for an additional 60 min and cells were then washed three times with ice-cold RPMI 1640 containing no glucose. Cell lysates were collected in 500 μL of 0.1% SDS and scintillation counts (counts/min) were measured on 400 μL of lysate. Counts were normalized to protein concentration.

[4] = Repeat-dose toxicology study in SD rats; format: in vivo
Description: Toxicology studies were performed in SD rats comparing PFK-158 and PFK-015 using a repeat dosing schedule. The studies were performed at dose levels ranging from 5 to 30 mg/kg and animals were monitored for weight loss, behavior, clinical signs, and clinical chemistries. At the end of the study, gross pathology and histopathology were performed.

[5] = target: PFKFB3 (Homo sapiens, UniProt Q16875); assay: Enzymatic activity of PFKFB3 in cells (F2,6BP levels, Van Schaftingen method); format: cell-based; set-up: endogenous in cells; host or cells: Jurkat cells
Description: Inhibition of PFKFB3 can also be measured in cells by measuring fructose-2,6-biphosphate levels according to the Van Schaftingen method (Eur. J. of Biochem, 129: 191 (1982)). This method enables measurement of the inhibition in a cellular environment, a model more relevant than the pure recombinant protein. Briefly, Jurkat cells were plated at 1×10^5 cells/mL and incubated with different concentrations of PFK-158 for 3 hours. Samples were collected and cells were lysed. Extracts were characterized as described in previous reports and normalized to protein concentration.

[6] = test system: lung cancer model, pancreatic cancer model, colon cancer model; assay: Tumor growth inhibition in mouse cancer models
Description: Studies determining efficacy of PFK-158 at inhibiting tumor growth in mouse cancer models were performed. These studies were carried out with PFK-158 alone and in combination with compounds currently used in the treatment of cancer patients. Studies were performed in a lung cancer model, a pancreatic cancer model, and in a colon cancer model.
Efficacy of PFK-158 was studied in vivo in tumor models. Several tumor models were used in these studies (the Lewis lung carcinoma, or LLC model, the CT-26 colon carcinoma tumor model, or the BXPC3 pancreatic cancer model). The experimental protocol for the LLC study is described below. Subsequent to subcutaneous inoculation of tumor cells, tumors started to develop and once tumors reached the desired volume of 100-125 mm^3 on average, treatment was initiated. Tumor volume was monitored in both groups and the average for both the control and treatment groups was measured three times a week, as well as body weights.
Briefly, normal female C57BL/6 mice at 7-8 weeks of age were used for the study. Mice were housed in microisolator housing, with food and water provided as libitum, and quarantined for 4 days prior to the initiation of the study. LLC cells were maintained in a monolayer culture in DMEM medium supplemented with 10% heat inactivated fetal calf serum, 100 U/ml penicillin and 100 μg/ml streptomycin, and L-glutamine (2 mM) at 37° C. in an atmosphere of 5% CO2 in air. The tumor cells were routinely sub-cultured twice a week. The cells growing in an exponential phase were harvested and counted for tumor inoculation. Each mouse was inoculated subcutaneously at the right flank with the LLC tumor cells (3×10^5) in 0.1 ml of PBS for tumor development. When athymic nude mice were used, as for the BxPC3 model, then the strain of mice is slightly different. Furthermore, the use of Matrigel supports tumor development, meaning that cells are suspended in 100 μl of a mixture of medium/Matrigel (1:1) and are then subcutaneously implanted in the right flank region. Animals were monitored for tumor growth daily after cell implantation. When tumor volumes reached approximately 100-125 mm^3, mice were randomized into groups of 8 mice each using only mice having tumor volumes closest to the mean value. Tumor volumes were measured using the formula V=L×W×H×π/6, where L and W represent the longer and shorter diameters of the tumor and H represents the height of the tumor. Treatment began following randomization. PFK-158 was administered IP at a dose of 60 mg/kg on days 1, 3, 5, 7, 9, 11, and 13.
Similar protocols were used for the other studies using different models; differences included the use of Balbc/nude mice; administering larger number of cancer cells; and use of Matrigel.

Chain of PFKFB3 (Q16875 whole entry): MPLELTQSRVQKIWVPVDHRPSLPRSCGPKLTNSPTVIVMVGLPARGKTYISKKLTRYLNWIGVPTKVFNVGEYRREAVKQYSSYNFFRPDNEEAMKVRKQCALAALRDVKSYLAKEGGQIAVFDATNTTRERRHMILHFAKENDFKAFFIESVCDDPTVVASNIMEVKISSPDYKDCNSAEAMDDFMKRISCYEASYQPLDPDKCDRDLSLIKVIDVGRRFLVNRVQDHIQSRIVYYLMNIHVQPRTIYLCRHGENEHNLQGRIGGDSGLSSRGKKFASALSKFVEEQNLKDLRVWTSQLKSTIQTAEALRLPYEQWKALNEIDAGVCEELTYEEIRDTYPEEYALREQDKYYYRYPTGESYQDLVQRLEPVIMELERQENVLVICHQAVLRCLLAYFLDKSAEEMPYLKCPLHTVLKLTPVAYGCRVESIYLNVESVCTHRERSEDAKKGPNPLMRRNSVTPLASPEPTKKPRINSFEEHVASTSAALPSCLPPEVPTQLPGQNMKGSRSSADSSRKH

O=C(/C=C/c1ccc2ccc(C(F)(F)F)cc2n1)c1ccncc1 [PFK-158, (E)-1-(pyridyn-4-yl)-3-(7-(trifluoromethyl)quinolin-2-yl)-prop-2-en-1-one]
signs of toxicity ([1]; beagle dogs, 40 mg/kg three times a week for three weeks): no signs of toxicity | NOAEL at 3 weeks ([1]; both sexes, beagle, dog, in vivo): 40 mg/kg | Human Equivalent Dose (HED) of the NOAEL ([1]; dog, in vivo): 800 mg/m^2 | Percent metabolized after 1 hr [2]: 37% | IC50 ([3]; FIG. 2, 14C-2-deoxyglucose, read-out: IC50, inhibition of glucose uptake): 847 ± 150 nM | IC50 ([3]; Table 1, read-out: IC50, Inhibition of 2 deoxyglucose uptake): 800 ± 100 nM | IC50 ([3]; Table 6, read-out: IC50 Glucose Uptake): 847 ± 150 nM | MTD ([4]; rat, in vivo, repeat dosing schedule): > 30 mg/kg | Adverse observations in toxicology study ([4]; repeat dosing, PFK-158 5 to 30 mg/kg, PFK-015 12 and 25 mg/kg): no adverse observations | IC50 ([5]; FIG. 3, Jurkat cells, 3 hours, read-out: IC50, PFKFB3 in cells by fructose-2,6-biphosphate levels): 1600 ± 800 nM | IC50 ([5]; Table 1, F2,6BP levels, Jurkat cells, read-out: IC50, Enzymatic activity of PFKFB3 in cells): 1600 ± 800 nM | IC50 ([5]; Table 6, Jurkat cells, read-out: IC50 Cellular PFKFB3 (F2,6BP)): 1620 ± 400 nM | IC50 ([5]; Table 8, read-out: IC50, Enzymatic activity of PFKFB3 in cells): 1600 ± 800 nM | tumor growth inhibition ([6]; lung, pancreatic and colon cancer mouse models): 50% to 70 | body weight loss ([6]; mouse, in vivo): without noticeable body weight loss or death | effect of combination with other chemotherapeutic agents ([6]; tumor models, FIGS. 6-8): additive or synergistic effect
